{"source": "patent US12172993B2", "about": "(priority 2018, dated 2024)", "key": {"[1]": {"system": "cell-panel representing haematological cancers", "assay": "haematological cancer cell-panel growth inhibition (Oncolead)", "type": "cell-based"}, "in vivo": {"assay": "in vivo", "settings": "male, CD1, mouse"}, "murine plasma-proteins": {"system": "murine plasma-proteins", "settings": "murine plasma protein binding"}, "[2]": {"assay": "maximal tolerable dose (MTD) study in female C57Bl/6 mice"}, "NFKB activity": {"system": "NFKB activity", "settings": "PANC-1 reporter cells; in words"}, "[3]": {"system": "immune cells present in the tumour microenvironment"}, "MC38 cells [4]": {"system": "MC38 cells", "assay": "cells", "settings": "Mus musculus, MC-38, 72 h, read-out: MC38 IC50 (nM at 100 ng/mL TNF)"}, "human plasma-proteins": {"system": "human plasma-proteins", "settings": "human plasma-protein binding"}, "PANC-1 cells": {"system": "PANC-1 cells", "assay": "real-time live cell microscopy of TNF-induced cell death (YOYO-1)", "type": "cell-based", "settings": "real-time live cell assay"}, "RAF1": {"biological_target": "RAF1 (Homo sapiens (Human), UniProt P04049, Y340D/Y341D)", "sequence (P04049 307-648 Y340D/Y341D limits assumed)": "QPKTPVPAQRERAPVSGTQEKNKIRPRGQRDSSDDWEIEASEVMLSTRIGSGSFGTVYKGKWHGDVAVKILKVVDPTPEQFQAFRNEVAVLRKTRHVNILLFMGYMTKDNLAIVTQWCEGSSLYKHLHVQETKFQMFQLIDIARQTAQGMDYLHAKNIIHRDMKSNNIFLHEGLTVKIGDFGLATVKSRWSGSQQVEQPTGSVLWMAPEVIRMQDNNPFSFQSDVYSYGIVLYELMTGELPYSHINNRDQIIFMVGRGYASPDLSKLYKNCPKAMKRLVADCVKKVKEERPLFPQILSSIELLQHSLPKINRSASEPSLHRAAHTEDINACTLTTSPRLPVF", "type": "biochemical", "settings": "read-out: Residual activity (%) at 1 μM"}, "[5]": {"settings": "human, microsomes, 40 min"}, "MC38 cells [6]": {"system": "MC38 cells"}, "hERG potassium channel": {"biological_target": "hERG potassium channel (Homo sapiens (Human), UniProt Q12809)", "settings": "3 uM; from NDA 21-986 review; cited from earlier work"}, "MDR1": {"system": "MDR1", "assay": "in vitro", "settings": "dog, MDCK-MDR1"}, "BMPR1A": {"biological_target": "BMPR1A (Homo sapiens (Human), UniProt P36894)", "sequence (P36894 24-532 limits assumed)": "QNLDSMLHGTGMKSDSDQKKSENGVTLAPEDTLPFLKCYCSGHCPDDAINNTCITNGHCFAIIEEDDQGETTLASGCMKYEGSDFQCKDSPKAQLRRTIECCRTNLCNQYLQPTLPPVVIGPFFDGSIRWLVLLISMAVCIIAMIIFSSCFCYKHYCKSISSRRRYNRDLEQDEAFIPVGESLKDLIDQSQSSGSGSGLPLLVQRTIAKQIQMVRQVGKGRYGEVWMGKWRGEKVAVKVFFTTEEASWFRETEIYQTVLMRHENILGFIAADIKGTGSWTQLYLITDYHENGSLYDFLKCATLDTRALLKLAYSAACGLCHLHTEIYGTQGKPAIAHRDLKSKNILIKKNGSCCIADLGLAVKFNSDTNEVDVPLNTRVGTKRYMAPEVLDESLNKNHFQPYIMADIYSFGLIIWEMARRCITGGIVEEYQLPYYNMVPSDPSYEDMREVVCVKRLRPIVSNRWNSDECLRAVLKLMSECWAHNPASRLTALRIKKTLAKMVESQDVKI", "assay": "biochemical", "settings": "read-out: Residual activity (%) at 1 μM"}, "MST4": {"biological_target": "MST4 (Homo sapiens (Human), UniProt Q9P289)", "assay": "biochemical", "settings": "read-out: Residual activity (%) at 1 μM"}, "PDGFR-beta": {"biological_target": "PDGFR-beta (Homo sapiens (Human), UniProt P09619)", "sequence (P09619 33-1106 limits assumed)": "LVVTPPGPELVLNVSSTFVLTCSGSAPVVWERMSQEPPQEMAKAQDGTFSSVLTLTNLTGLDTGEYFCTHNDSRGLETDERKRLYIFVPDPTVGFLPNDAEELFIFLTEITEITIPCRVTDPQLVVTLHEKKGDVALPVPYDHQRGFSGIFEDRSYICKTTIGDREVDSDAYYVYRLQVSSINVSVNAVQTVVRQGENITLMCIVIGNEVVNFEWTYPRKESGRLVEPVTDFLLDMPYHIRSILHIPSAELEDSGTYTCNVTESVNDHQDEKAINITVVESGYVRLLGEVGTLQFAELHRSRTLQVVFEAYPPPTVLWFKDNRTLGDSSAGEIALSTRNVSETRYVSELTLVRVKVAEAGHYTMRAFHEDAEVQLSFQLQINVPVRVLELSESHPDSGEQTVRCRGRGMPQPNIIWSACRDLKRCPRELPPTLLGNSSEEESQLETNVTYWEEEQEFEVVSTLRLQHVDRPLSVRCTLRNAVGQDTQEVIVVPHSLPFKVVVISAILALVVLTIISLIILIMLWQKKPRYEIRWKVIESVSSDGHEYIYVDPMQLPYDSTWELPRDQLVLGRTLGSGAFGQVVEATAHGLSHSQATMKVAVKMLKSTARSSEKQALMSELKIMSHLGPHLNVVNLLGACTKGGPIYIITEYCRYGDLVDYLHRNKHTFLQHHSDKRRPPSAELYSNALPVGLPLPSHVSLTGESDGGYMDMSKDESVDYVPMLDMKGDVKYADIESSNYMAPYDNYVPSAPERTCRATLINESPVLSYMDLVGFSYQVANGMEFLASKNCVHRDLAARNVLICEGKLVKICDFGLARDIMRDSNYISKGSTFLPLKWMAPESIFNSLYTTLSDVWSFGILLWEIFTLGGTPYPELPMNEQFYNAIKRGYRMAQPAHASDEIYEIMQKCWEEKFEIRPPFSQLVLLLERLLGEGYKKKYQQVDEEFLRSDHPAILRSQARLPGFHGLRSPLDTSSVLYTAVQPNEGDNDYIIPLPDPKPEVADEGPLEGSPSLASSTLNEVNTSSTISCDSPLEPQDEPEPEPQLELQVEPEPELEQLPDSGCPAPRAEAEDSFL", "assay": "biochemical", "settings": "read-out: Residual activity (%) at 1 μM"}, "in vitro": {"assay": "in vitro", "settings": "dog, MDCK"}, "RET [7]": {"biological_target": "T1, RET (Homo sapiens (Human), UniProt P07949)", "T1 sequence (P07949 29-1114 limits assumed)": "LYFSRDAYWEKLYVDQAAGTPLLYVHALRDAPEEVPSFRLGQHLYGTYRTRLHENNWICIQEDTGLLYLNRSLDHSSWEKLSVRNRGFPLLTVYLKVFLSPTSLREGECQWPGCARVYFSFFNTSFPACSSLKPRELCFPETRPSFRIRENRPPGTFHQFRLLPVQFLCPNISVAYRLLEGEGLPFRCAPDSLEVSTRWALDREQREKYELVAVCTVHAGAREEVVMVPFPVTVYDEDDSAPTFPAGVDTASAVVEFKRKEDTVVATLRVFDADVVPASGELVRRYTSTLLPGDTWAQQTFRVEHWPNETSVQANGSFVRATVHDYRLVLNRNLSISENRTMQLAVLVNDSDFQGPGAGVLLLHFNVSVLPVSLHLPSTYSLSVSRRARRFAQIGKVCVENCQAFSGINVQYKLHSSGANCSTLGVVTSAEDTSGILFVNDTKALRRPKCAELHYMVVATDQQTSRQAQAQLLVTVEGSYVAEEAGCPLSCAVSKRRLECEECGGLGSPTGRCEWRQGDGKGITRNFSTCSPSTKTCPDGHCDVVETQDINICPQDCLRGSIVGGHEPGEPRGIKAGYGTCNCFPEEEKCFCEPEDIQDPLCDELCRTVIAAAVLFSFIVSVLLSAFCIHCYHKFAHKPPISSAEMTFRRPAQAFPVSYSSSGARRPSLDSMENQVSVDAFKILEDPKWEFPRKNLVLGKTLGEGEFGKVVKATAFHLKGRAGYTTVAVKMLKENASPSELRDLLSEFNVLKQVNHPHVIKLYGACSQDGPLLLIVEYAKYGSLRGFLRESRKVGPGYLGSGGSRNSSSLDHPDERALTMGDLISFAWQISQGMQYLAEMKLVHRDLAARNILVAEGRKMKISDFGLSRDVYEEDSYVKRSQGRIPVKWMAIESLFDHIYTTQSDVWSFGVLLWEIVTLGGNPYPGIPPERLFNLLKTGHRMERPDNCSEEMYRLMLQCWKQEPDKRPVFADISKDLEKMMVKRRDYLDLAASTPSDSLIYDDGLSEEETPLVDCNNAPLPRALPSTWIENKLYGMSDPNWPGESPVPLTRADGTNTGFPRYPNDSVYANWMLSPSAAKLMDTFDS"}, "RET [8]": {"biological_target": "T1, RET", "assay": "biochemical", "settings": "read-out: Residual activity (%) at 1 μM, RET"}, "WEE1": {"biological_target": "WEE1 (Homo sapiens (Human), UniProt P30291)", "assay": "biochemical", "settings": "read-out: Residual activity (%) at 1 μM"}, "[9]": {"settings": "twice daily treatment, intra-tumoural"}}, "data": [{"molecule": "Cc1nc(Nc2ncc(C(=O)Nc3c(C)csc3Cl)s2)cc(N2CCN(CCO)CC2)n1", "note": "[Compound C7, N-(2-chloro-4-methylthiophen-3-yl)-2-((6-(4-(2-hydroxyethyl)piperazin-1-yl)-2-methylpyrimidin-4-yl)amino)thiazole-5-carboxamide]", "values": [{"measurement": "phosphorylation of HDAC4", "setting": "HDAC4 phosphorylation", "value": "inhibit the phosphorylation of HDAC4"}, {"measurement": "GI50 activity", "setting": "[1]; on about 5 cell lines of the panel", "value": "sub-nanomolar"}, {"measurement": "GI50", "setting": "[1]; read-out: GI50 activity", "value": "< 10", "unit": "nM"}, {"measurement": "MRT inf", "setting": "in vivo; in vivo, iv, 1 mg/kg", "value": 1, "unit": "h"}, {"measurement": "MRT last", "setting": "in vivo; in vivo, iv, 1 mg/kg", "value": 0.7, "unit": "h"}, {"measurement": "Percentage unbound (%)", "setting": "murine plasma-proteins", "value": 5, "unit": "%"}, {"measurement": "signs of intolerance", "setting": "[2]; 33 and 100 mg/kg QD or BID, 7 consecutive days", "value": "did not show any signs of intolerance"}, {"measurement": "body weight", "setting": "[2]; all dosing groups vs non-treated control animals", "value": "minor reduction in body weight"}, {"measurement": "tolerable dose", "setting": "[2]; gavage, female C57BL/6 animals, seven days", "value": "up to 100 mg/kg BID"}, {"measurement": "TNF-induced activity of NFkB", "setting": "NFKB activity", "value": "inhibit TNF-induced activity of NFkB in a dose-dependent manner"}, {"measurement": "immunosuppressive M2 macrophages (CD206+MHC-II+)", "setting": "[3]; mouse, in vivo", "value": "significantly reduced"}, {"measurement": "activation of cytotoxic T lymphocytes, CD25+CD69+", "setting": "[3]; [9]", "value": "increased activation"}, {"measurement": "activation of cytotoxic T lymphocytes, granzyme B expression", "setting": "[3]; [9]", "value": "increased activation"}, {"measurement": "IC50", "setting": "MC38 cells [4]", "value": "< 100", "unit": "nM"}, {"measurement": "Percentage unbound (%)", "setting": "human plasma-proteins", "value": "<1", "unit": "%"}, {"measurement": "sensitisation to the effect of rHuTNF", "setting": "PANC-1 cells", "value": "sensitise PANC-1 cells to the effect of rHuTNF"}, {"measurement": "remaining activity at 1 µM", "setting": "RAF1", "value": "4 to 5", "unit": "%"}, {"measurement": "% Remaining at 40 min (%)", "setting": "[5]", "value": 1, "unit": "%"}, {"measurement": "sensitisation to the cytotoxic effect of TNF", "setting": "MC38 cells [6]", "value": "sensitised to the cytotoxic effect of TNF"}]}, {"molecule": "Cc1nc(Nc2ncc(C(=O)Nc3c(C)cccc3Cl)s2)cc(N2CCN(CCO)CC2)n1", "note": "[Compound A8, N-(2-chloro-6-methylphenyl)-2-((6-(4-(2-hydroxyethyl)piperazin-1-yl)-2-methylpyrimidin-4-yl)amino)thiazole-5-carboxamide, reference compound]", "values": [{"measurement": "inhibition of hERG currents", "setting": "hERG potassium channel", "value": "about 6%"}, {"measurement": "Papp", "setting": "MDR1", "value": 105, "unit": "×10⁻⁶ cm/s"}, {"measurement": "remaining activity at 1 µM", "setting": "BMPR1A", "value": 42, "unit": "%"}, {"measurement": "Cmax", "setting": "in vivo; plasma, iv, 1 mg/kg", "value": 1280, "unit": "nM"}, {"measurement": "MRT inf", "setting": "in vivo; plasma, iv, 1 mg/kg", "value": 1.6, "unit": "h"}, {"measurement": "MRT last", "setting": "in vivo; plasma, iv, 1 mg/kg", "value": 1.3, "unit": "h"}, {"measurement": "Tmax", "setting": "in vivo; plasma, iv, 1 mg/kg", "value": 0.08, "unit": "h"}, {"measurement": "Vd", "setting": "in vivo; plasma, iv, 1 mg/kg", "value": 3.1, "unit": "L/kg"}, {"measurement": "clearance", "setting": "in vivo; plasma, iv, 1 mg/kg", "value": 32, "unit": "mL/min/kg"}, {"measurement": "Cmax", "setting": "in vivo; plasma, po, 30 mg/kg", "value": 1130, "unit": "nM"}, {"measurement": "Tmax", "setting": "in vivo; plasma, po, 30 mg/kg", "value": 2, "unit": "h"}, {"measurement": "bioavailability", "setting": "in vivo; plasma, po, 30 mg/kg", "value": 21, "unit": "%"}, {"measurement": "remaining activity at 1 µM", "setting": "MST4", "value": 79, "unit": "%"}, {"measurement": "remaining activity at 1 µM", "setting": "PDGFR-beta", "value": 2, "unit": "%"}, {"measurement": "Papp", "setting": "in vitro", "value": 49, "unit": "×10⁻⁶ cm/s"}, {"measurement": "Residual activity (%) at 1 μM", "setting": "RET [7]", "value": 39, "unit": "%"}, {"measurement": "remaining activity at 1 µM", "setting": "RET [8]", "value": "< 40", "unit": "%"}, {"measurement": "remaining activity at 1 µM", "setting": "WEE1", "value": 61, "unit": "%"}]}]}
